Assay results published in ChEMBL document CHEMBL1126838 (J Med Chem, 1993).

Molecular target: Tyrosine-protein kinase Lck (Homo sapiens, UniProt P06239)
Assay: Tested in vitro for the inhibition of protein-tyrosine kinase p56lck using angiotensin I (1.2 mM) and [gamma-32P]-ATP (50 µM)

Sequence of Tyrosine-protein kinase Lck (P06239 whole entry): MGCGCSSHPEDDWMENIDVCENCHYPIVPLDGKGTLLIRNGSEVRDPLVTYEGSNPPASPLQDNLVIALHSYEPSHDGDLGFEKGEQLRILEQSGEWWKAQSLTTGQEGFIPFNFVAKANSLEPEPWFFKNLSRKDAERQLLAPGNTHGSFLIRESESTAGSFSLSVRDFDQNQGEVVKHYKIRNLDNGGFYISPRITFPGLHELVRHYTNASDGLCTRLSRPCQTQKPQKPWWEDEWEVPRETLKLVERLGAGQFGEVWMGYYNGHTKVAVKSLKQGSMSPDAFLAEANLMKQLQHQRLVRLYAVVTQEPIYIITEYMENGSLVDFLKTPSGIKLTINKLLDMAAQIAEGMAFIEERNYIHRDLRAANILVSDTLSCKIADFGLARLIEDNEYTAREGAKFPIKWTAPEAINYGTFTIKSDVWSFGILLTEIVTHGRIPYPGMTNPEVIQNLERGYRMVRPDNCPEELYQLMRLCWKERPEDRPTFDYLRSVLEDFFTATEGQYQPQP

Oc1cccc(/C=C/c2ccc(O)c(O)c2)c1
IC50: 58 µM

Oc1ccc(/C=C/c2ccccc2)cc1O [(E)-3,4-STILBENDIOL]
IC50: 203 µM

C(=C\c1ccc(OCc2ccccc2)c(OCc2ccccc2)c1)/c1cccc(OCc2ccccc2)c1
IC50: > 2030 µM

Oc1cc(O)cc(/C=C/c2cc(O)cc(O)c2)c1
IC50: 16 µM

C(=C\c1cc(OCc2ccccc2)cc(OCc2ccccc2)c1)/c1ccccc1
IC50: > 2030 µM

C(=C\c1cc(OCc2ccccc2)cc(OCc2ccccc2)c1)/c1ccc(OCc2ccccc2)cc1
IC50: > 2030 µM

Oc1ccc(/C=C/c2ccc(O)c(O)c2)cc1
IC50: 19 µM

Oc1cc(O)cc(CCc2cc(O)cc(O)c2)c1
IC50: 487 µM

C(=C\c1ccc(OCc2ccccc2)c(OCc2ccccc2)c1)/c1ccccc1
IC50: > 2030 µM

Oc1cc(O)cc(CCc2ccc(O)c(O)c2)c1
IC50: 1560 µM

Oc1cc(O)cc(/C=C/c2ccccc2)c1 [PINOSYLVIN]
IC50: 193 µM

C(=C\c1ccc(OCc2ccccc2)c(OCc2ccccc2)c1)/c1ccc(OCc2ccccc2)cc1
IC50: > 2030 µM

Oc1cccc(/C=C/c2cccc(O)c2)c1
IC50: 234 µM

Oc1cccc(/C=C/c2cc(O)cc(O)c2)c1
IC50: 17 µM

C(=C\c1cc(OCc2ccccc2)cc(OCc2ccccc2)c1)/c1cccc(OCc2ccccc2)c1
IC50: > 2030 µM

Oc1ccc(/C=C/c2ccc(O)c(O)c2)cc1O
IC50: 74 µM

Oc1ccc(/C=C/c2cc(O)cc(O)c2)cc1 [RESVERATROL]
IC50: 112 µM
